Earlier results on one molecule are cited in patent US9233176B2, “Systems and method of delivering fluids to a patient of varying concentration” (Bayer HealthCare LLC, priority 2006, dated 2016).

Read-outs that look alike come from different tables or passages of the source.

In the case of `COCC(=O)Nc1c(I)c(C(=O)NCC(O)CO)c(I)c(C(=O)N(C)CC(O)CO)c1I` (centres unmarked) [Iopromide], the iodine flux rate by setting is: (300 mg I/ml solution, application flow rate 8 ml/s) 2400 mg I/s; (370 mg I/ml solution, application flow rate 6 ml/s) 2220 mg I/s.
